Key:
[1] = target: T1, human TLR7 (wild type sequence) (Homo sapiens, UniProt Q9NYK1); assay: TLR7 cellular NFκB-luc reporter assay, wild type TLR7; type: cell-based; set-up: unit not given here; settings: lowest effective concentration, wild type TLR7 (compounds 74 onward)
T1 construct: expressed in transfected cells; host or cells: HEK293
T1 sequence (Q9NYK1 27-1049): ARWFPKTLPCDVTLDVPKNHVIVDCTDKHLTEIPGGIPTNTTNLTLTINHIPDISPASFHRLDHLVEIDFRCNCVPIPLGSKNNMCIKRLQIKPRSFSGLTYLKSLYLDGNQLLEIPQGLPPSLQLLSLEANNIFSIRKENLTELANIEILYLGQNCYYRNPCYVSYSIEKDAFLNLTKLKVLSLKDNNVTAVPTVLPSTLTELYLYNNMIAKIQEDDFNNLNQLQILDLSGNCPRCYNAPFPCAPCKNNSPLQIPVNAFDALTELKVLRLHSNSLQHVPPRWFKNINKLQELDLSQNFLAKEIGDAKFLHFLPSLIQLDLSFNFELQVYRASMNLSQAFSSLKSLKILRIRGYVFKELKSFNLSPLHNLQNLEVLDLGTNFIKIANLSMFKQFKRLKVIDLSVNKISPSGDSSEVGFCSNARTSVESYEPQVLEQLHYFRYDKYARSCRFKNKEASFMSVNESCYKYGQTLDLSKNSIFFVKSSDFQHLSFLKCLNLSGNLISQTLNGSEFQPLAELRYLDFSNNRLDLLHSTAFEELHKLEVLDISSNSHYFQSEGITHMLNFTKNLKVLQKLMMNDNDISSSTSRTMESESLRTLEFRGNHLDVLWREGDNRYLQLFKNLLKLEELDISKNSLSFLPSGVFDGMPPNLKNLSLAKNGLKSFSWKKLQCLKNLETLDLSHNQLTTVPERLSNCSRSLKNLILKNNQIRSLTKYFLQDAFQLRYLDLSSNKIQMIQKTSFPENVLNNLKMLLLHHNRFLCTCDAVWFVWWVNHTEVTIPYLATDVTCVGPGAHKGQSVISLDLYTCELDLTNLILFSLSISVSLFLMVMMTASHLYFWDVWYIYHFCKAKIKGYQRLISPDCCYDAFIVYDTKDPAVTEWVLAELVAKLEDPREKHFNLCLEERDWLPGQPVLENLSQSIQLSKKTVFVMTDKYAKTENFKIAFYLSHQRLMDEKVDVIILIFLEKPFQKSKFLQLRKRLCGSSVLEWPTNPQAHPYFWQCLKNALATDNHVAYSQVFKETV
Protocol: (§1) The ability of compounds to activate human TLR7 and/or TLR8 was assessed in a cellular reporter assay using HEK293 cells transiently transfected with a TLR7 or TLR8 expression vector and NFκB-luc reporter construct. In one instance the TLR expression construct expresses the respective wild type sequence or a mutant sequence comprising a deletion in the second leucine-rich repeat of the TLR.
(§2) Briefly, HEK293 cells were grown in culture medium (DMEM supplemented with 10% FCS and 2 mM Glutamine). For transfection of cells in 10 cm dishes, cells were detached with Trypsin-EDTA, transfected with a mix of CMV-TLR7 or TLR8 plasmid (750 ng), NFκB-luc plasmid (375 ng) and a transfection reagent and incubated for 48 hours at 37° C. in a humidified 5% CO2 atmosphere. Transfected cells were then detached with Trypsin-EDTA, washed in PBS and resuspended in medium to a density of 1.67×10^5 cells/mL. Thirty microliters of cells were then dispensed into each well in 384-well plates, where 10 μL of compound in 4% DMSO was already present. Following 6 hours incubation at 37° C., 5% CO2, the luciferase activity was determined by adding 15 μl of Steady Lite Plus substrate (Perkin Elmer) to each well and readout performed on a ViewLux ultraHTS microplate imager (Perkin Elmer). Dose response curves were generated from measurements performed in quadruplicates. Lowest effective concentrations (LEC) values, defined as the concentration that induces an effect which is at least two fold above the standard deviation of the assay, were determined for each compound.

[2] = system: HCV replicon in Huh-7 luc/neo cells; assay: Suppression of HCV replicon replication by conditioned media from compound-treated PBMC; type: cell-based, HCV type 1 b; settings: Hepatitis C virus; conditioned media from compound-treated PBMC on Huh-7 luc/neo replicon cells (compounds 74 onward); read-out: PBMC HUH-7 EC50
Protocol: Activation of human TLR7 results in robust production of interferon by plasmacytoid dendritic cells present in human blood. The potential of compounds to induce interferon was evaluated by looking at the antiviral activity in the HCV replicon system upon incubation with conditioned media from peripheral blood mononuclear cells (PBMC). […] The assay utilized the stably transfected cell line Huh-7 luc/neo harboring an RNA encoding a bicistronic expression construct comprising the wild type NS3-NS5B regions of HCV type 1 b translated from an Internal Ribosome Entry Site (IRES) from encephalomyocarditis virus (EMCV), preceded by a reporter gene (Firefly-luciferase) and a selectable marker gene (neoR, neomycine phosphotransferase). The construct is flanked by 5′ and 3′ NTRs (non-translated regions) from HCV type 1 b. Continued culture of the replicon cells in the presence of G418 (neoR) is dependent on the replication of the HCV RNA. The stably transfected replicon cells that replicate HCV RNA autonomously and to high levels, encoding inter alia luciferase, were used for profiling of the conditioned cell culture media.
Briefly, PBMCs were prepared from buffy coats of at least two donors using a standard Ficoll centrifugation protocol. Isolated PBMCs were resuspended in RPMI medium supplemented with 10% human AB serum and 2×10^5 cells/well were dispensed into 384-well plates containing compounds (70 μL total volume). After overnight incubation, 10 μL of supernatant was transferred to 384-well plates containing 2.2×10^3 replicon cells/well in 30 μL (plated the day before). Following 24 hours of incubation, replication was measured by assaying luciferase activity using 40 μL/well Steady Lite Plus substrate (Perkin Elmer) and measured with ViewLux ultraHTS microplate imager (Perkin Elmer). […] Recombinant interferon α-2a (Roferon-A) was used as a standard control compound.

[3] = target: T2, human TLR8 (wild type sequence) (Homo sapiens, UniProt Q9NR97); assay: TLR8 cellular NFκB-luc reporter assay, wild type TLR8; type: cell-based; set-up: unit not given here; settings: lowest effective concentration, wild type TLR8 (compounds 74 onward)
T2 construct: expressed in transfected cells; host or cells: HEK293
T2 sequence (Q9NR97 27-1041): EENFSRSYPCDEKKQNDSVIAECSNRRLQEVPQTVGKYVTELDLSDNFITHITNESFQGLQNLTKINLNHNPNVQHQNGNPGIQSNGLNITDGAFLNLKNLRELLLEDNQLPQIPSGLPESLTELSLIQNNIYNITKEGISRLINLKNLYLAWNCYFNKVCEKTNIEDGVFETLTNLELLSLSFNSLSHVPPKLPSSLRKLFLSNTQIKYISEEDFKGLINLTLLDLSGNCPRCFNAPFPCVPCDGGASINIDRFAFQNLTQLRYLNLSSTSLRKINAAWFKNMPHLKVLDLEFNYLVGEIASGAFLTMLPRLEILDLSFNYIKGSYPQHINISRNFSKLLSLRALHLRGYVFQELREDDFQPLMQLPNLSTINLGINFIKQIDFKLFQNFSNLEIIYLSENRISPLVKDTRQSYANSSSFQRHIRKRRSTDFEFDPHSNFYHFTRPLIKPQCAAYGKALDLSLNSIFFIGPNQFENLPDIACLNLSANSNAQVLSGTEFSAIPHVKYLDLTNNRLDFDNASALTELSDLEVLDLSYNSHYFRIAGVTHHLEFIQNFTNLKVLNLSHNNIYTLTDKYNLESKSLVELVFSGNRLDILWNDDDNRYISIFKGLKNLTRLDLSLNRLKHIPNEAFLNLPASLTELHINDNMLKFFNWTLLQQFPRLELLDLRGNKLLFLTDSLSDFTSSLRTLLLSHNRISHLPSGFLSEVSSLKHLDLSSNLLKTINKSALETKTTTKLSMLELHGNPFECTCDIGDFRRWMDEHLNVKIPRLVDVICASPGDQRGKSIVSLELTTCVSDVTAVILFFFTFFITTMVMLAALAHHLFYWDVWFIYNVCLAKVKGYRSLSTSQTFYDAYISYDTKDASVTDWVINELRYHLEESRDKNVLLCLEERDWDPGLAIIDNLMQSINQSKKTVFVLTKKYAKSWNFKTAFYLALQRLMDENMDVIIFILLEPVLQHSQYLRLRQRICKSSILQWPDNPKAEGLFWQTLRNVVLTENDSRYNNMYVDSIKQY
Protocol: as §1, §2

| SMILES | TLR 7 wt LEC [1] | EC50 [2] [nM] | TLR 8 wt LEC [3] |
| --- | --- | --- | --- |
| CCCCNc1nc(N)ncc1OCc1cc(C)n(C)n1 [Compound 117] | 0.335 | 88 | 1.120 |
| CCCCNc1nc(N)ncc1OCc1c(C)noc1-c1ccccc1 [Compound 118] | 1.670 | 976 | 3.710 |
| CCCCNc1nc(N)ncc1OCc1ccc(C(F)(F)F)o1 [Compound 119] | 1.720 | 193 | 6.120 |
| CCCCNc1nc(N)ncc1OCc1ccc(C(=O)OC)o1 [Compound 120] | 0.649 | 273 | 3.910 |
| CCCCNc1nc(N)ncc1OCc1ccc(C(F)(F)F)nc1 [Compound 121] | 0.797 | 272 | 3.020 |
| CCCCNc1nc(N)ncc1OCc1cccc(C)n1 [Compound 122] | 0.118 | 25 | 0.628 |
| CCCCCNc1nc(N)nc(C)c1OCc1ccccc1 [Compound 124] | 15.610 | > 23800 | 13.650 |
| CCC[C@@H](CO)Nc1nc(N)ncc1OCCCc1ccccc1 [Compound 125] | 1.630 | 336 | 0.598 |
| CCCCNc1nc(N)ncc1OCCOc1ccc(C#N)cc1 [Compound 126] | 1.000 | 264 | 1.020 |
| CCCCNc1nc(N)ncc1OCCOc1cccc(OC)c1 [Compound 127] | 1.030 | 256 | 2.050 |
| CCCCNc1nc(N)ncc1OCCOc1ccnc2ccccc12 [Compound 128] | 2.430 | 284 | 3.740 |
| CCCCNc1nc(N)ncc1OCCOc1cc(OC)cc(OC)c1 [Compound 129] | 2.090 | 432 | 3.250 |
| CCCCNc1nc(N)ncc1OCCOc1cccc(OC)c1OC [Compound 130] | 0.676 | 103 | 6.560 |
| CCCCNc1nc(N)ncc1OCCOc1ccccc1C(F)(F)F [Compound 131] | 1.700 | 806 | >25 |
| CCCCNc1nc(N)ncc1OCCOc1ccc(C(=O)OC)cc1OC [Compound 132] | 1.470 | 634 | >25 |
| CCCCNc1nc(N)ncc1OCCOc1cc(OC)c(OC)c(OC)c1 [Compound 133] | 1.500 | 585 | 3.090 |
| CCCCNc1nc(N)ncc1OCCOc1ccc(C(=O)OC)c(OC)c1 [Compound 134] | 2.010 | 935 | 2.110 |
| CCCCNc1nc(N)ncc1OCCOc1ccc(C(F)(F)F)cc1 [Compound 135] | 3.230 | 3190 | 1.970 |
| CCCCNc1nc(N)ncc1OCCOc1ccnc2ccsc12 [Compound 136] | 2.000 | 275 | 2.030 |
| CCCCNc1nc(N)ncc1OCc1cccc(CC(=O)OC)c1 [Compound 137] | 0.757 | 22800 | 1.760 |
| CCCCNc1nc(N)ncc1OCc1cccc2c1OCCCO2 [Compound 138] | 1.040 | 570 | 1.050 |
| CCCCNc1nc(N)ncc1OCc1nccc(OCC(F)(F)F)c1C [Compound 139] | 0.025 | 9 | 0.286 |
| CCCCNc1nc(N)ncc1OCCOc1ccc(OC)c(OC)c1 [Compound 140] | 0.617 | 175 | 2.250 |
| CCCCNc1nc(N)ncc1OCCOc1ccnc2cc(OC)ccc12 [Compound 141] | 4.360 | 733 | 0.704 |
| CCCCNc1nc(N)ncc1OCCOc1cc(C(C)C)nc2cc(OC)ccc12 [Compound 142] | >25 | 19700 | 2.370 |
| CCCCNc1nc(N)ncc1OCCOc1cccnc1 [Compound 143] | 1.810 | 443 | 0.880 |
| CCCCNc1nc(N)ncc1OCCn1ccc(=O)c2ccc(OC)cc21 [Compound 144] | 13.010 | 1320 | 20.790 |
| CCCC[C@H](CCO)Nc1nc(N)ncc1OCc1ccccc1 [Compound 145] | 2.140 | 632 | 1.920 |
